In patent US11479539B2, “Small molecule modulators of the BTB domain of Keap1” (MedImmune Limited, priority 2017, dated 2022):

These compounds were tested against Keap1 (Homo sapiens (Human), UniProt Q14145) (assay: HEK293 ARE luciferase assay). Conditions: HEK-293 ARE firefly luciferase transiently transfected cells; 18 h incubation; mean of 1 to 20 individual measurements.
Assay type: cell-based
From the text: The purpose of this assay is to identify small molecule inhibitors of Keap1, preventing Keap1 binding to Nrf2, and thus activating the Nrf2 signalling pathway in HEK-293 ARE firefly luciferase transiently transfected cells. HEK-293 cells express wild-type Keap1 protein and therefore have low constitutive levels of Nrf2 protein and Nrf2-dependent transcription. […] When Keap1 is inhibited, Nrf2 signalling is activated, and there is an increase in luciferase expression and light emission.
Cryopreserved HEK ARE luciferase cells were rapidly thawed in a 37° C. water bath and resuspended in assay culture medium (DMEM, 10% FCS, 2 mM L-glutamine). The cell suspension was pelleted by centrifugation ([…]; 300 g) using a Heraeus benchtop centrifuge. Supernatant was removed and the pellet was gently resuspended in 5 mL culture medium per vial. Cell viability and cell number was measured using an Invitrogen Countess automated cell counter (typical viability 80%), and cells were diluted to a density of 5.0×10^5 cells/mL.
Cells were then plated out into white 384-well plates (Greiner 781080) using a Multidrop Combi, 20 μL/well, to give 10,000 cells/well. As appropriate, test compounds had been added to wells prior to dispensing cells using an Echo 555 acoustic dispenser (Labcyte). Plates were left at room temperature for ˜10 min to promote even cell settling across the plate before incubation for 18 h at 37° C., 95% humidity and 5% CO2.
After 18 h incubation, plates were removed from the incubator and allowed to cool to room temperature for 30 min, before 10 μL per well SteadyGlo reagent detection reagent was added (as per manufacturer's instructions, 10 min before required 10 mL room temperature buffer was added to one vial of lyophilised substrate and inverted several times to fully dissolve). Plates were then incubated in the dark for 30 min before reading on an Envision plate reader.
Compounds were acoustically dispensed using a Labcyte Echo, using a 10 pt dose curve with a top concentration of 100 μM. Assay wells were backfilled with DMSO to a total of 60 nL to maintain 0.3% (v/v) DMSO through the assay.
The Stimulator signal was defined using 30 μM tert-butyl hydroquinone (tBHQ) and the Neutral signal by DMSO vehicle control. All calculations were performed using GeneData.
In IBIS Column Calculations, Assay Type was set to ‘Stimulator’, and the Activity Threshold was set to 50.
The mean values were calculated from anywhere from 1 to 20 individual measurements.

Keap1, sequence (Q14145 whole entry): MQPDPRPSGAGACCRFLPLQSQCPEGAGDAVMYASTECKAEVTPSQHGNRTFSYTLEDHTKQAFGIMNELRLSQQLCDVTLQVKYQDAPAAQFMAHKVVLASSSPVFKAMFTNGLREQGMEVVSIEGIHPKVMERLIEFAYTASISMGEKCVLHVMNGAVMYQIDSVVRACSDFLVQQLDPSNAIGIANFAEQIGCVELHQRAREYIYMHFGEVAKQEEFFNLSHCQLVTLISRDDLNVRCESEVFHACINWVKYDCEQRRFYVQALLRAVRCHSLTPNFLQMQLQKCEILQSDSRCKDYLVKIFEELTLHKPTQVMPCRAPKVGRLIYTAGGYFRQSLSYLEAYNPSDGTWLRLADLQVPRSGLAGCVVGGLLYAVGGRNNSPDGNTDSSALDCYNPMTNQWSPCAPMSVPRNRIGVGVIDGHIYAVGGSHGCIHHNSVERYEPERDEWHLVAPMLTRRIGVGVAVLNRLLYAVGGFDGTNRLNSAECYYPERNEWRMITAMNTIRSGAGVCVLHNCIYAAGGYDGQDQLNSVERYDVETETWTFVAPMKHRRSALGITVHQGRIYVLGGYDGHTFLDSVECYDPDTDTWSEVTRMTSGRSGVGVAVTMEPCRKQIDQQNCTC

First: COC1(c2ncccc2C(F)F)C=C(C#N)C(=O)C(C)(C)C1 (single isomer, unassigned) [Compound 5, 3-(3-(difluoromethyl)pyridin-2-yl)-3-methoxy-5,5-dimethyl-6-oxocyclohex-1-enecarbonitrile]
Second: COC1(c2ncccc2C(F)(F)F)C=C(C#N)C(=O)C(C)(C)C1 (single isomer, unassigned) [Compound 15, 3-methoxy-5,5-dimethyl-6-oxo-3-(3-(trifluoromethyl)pyridin-2-yl)cyclohex-1-enecarbonitrile]
The EC50 of the first is 2.4-fold lower: 10 nM for the first, 24 nM for the second.

Going from `[2H]C([2H])([2H])OC1(c2cccc(-c3cnn(C)c3)n2)C=C(C#N)C(=O)C(C)(C)C1` (single isomer, unassigned) [Compound 14, 5,5-Dimethyl-3-[6-(1-methylpyrazol-4-yl)-2-pyridyl]-6-oxo-3-(trideuterio-methoxy)cyclohexene-1-carbonitrile] to `COC1(c2cccc(-c3cnn(C)c3)n2)C=C(C#N)C(=O)C2(CC2)C1` (single isomer, unassigned) [Compound 49, 7-methoxy-7-(6-(1-methyl-1H-pyrazol-4-yl)pyridin-2-yl)-4-oxospiro[2.5]oct-5-ene-5-carbonitrile], the EC50 rises from 12 nM to 138 nM (12-fold). The first is the more potent here.

Going from `COC1(c2ncccc2-c2cnn(C)c2)C=C(C#N)C(=O)C(C)(C)C1` (single isomer, unassigned) [Compound 23, 3-methoxy-5,5-dimethyl-3-(3-(1-methyl-1H-pyrazol-4-yl)pyridin-2-yl)-6-oxocyclohex-1-enecarbonitrile] to `COC1(c2ncccc2OC(F)(F)F)C=C(C#N)C(=O)C(C)(C)C1` (single isomer, unassigned) [Compound 41, 3-methoxy-5,5-dimethyl-6-oxo-3-(3-(trifluoromethoxy)py-ridin-2-yl)cyclohex-1-enecarbonitrile], the EC50 falls from 56 nM to 11 nM (5.1-fold). The second is the more potent here.

First: COC1(c2ncc(F)cc2C(F)(F)F)C=C(C#N)C(=O)C(C)(C)C1 (single isomer, unassigned) [Compound 26, 3-(5-fluoro-3-(trifluoromethyl)py-ridin-2-yl)-3-methoxy-5,5-dimethyl-6-oxocyclohex-1-enecarbonitrile]
Second: COC1(c2ncc(F)cc2F)C=C(C#N)C(=O)C(C)(C)C1 (single isomer, unassigned) [Compound 44, 3-(3,5-difluoropyridin-2-yl)-3-methoxy-5,5-dimethyl-6-oxocyclohex-1-enecarbonitrile]
The EC50 of the first is 1.5-fold lower: 24 nM for the first, 37 nM for the second. The first is the more potent here.

Going from `COC1(c2ccc(F)cn2)C=C(C#N)C(=O)C(C)(C)C1` (single isomer, unassigned) [Compound 27, 3-(5-fluoropyridin-2-yl)-3-methoxy-5,5-dimethyl-6-oxocyclohex-1-enecarbonitrile] to `CCOC1(c2ccc(F)cn2)C=C(C#N)C(=O)C(C)(C)C1` (single isomer, unassigned) [Compound 37, 3-ethoxy-3-(5-fluoropyridin-2-yl)-5,5-dimethyl-6-oxocyclohex-1-enecarbonitrile], the EC50 falls from 180 nM to 86 nM (2.1-fold). The second is the more potent here.

Compared with `COC1(c2ncc(F)cc2C)C=C(C#N)C(=O)C(C)(C)C1` (single isomer, unassigned) [Compound 31, 3-(5-fluoro-3-methylpyridin-2-yl)-3-methoxy-5,5-dimethyl-6-oxocyclohex-1-enecarbonitrile], `COC1(c2ncc(F)cc2Br)C=C(C#N)C(=O)C(C)(C)C1` (single isomer, unassigned) [Compound 48, 3-(3-bromo-5-fluoropyridin-2-yl)-3-methoxy-5,5-dimethyl-6-oxocyclohex-1-enecarbonitrile] is 3.2-fold lower in EC50: 19 nM for the first, 6 nM for the second.

Going from `COC1(c2ccc(Cl)cn2)C=C(C#N)C(=O)C(C)(C)C1` (single isomer, unassigned) [Compound 32, 3-(5-chloropyridin-2-yl)-3-methoxy-5,5-dimethyl-6-oxocyclohex-1-enecarbonitrile] to `COC1(c2ncc(Cl)cc2C(F)F)C=C(C#N)C(=O)C(C)(C)C1` (single isomer, unassigned) [Compound 45, 3-(5-chloro-3-(difluoromethyl)py-ridin-2-yl)-3-methoxy-5,5-dimethyl-6-oxocyclohex-1-enecarbonitrile], the EC50 falls from 55 nM to 28 nM (2-fold). The second is the more potent here.

First: COC1(c2nc(C(F)(F)F)cs2)C=C(C#N)C(=O)C(C)(C)C1 (single isomer, unassigned) [Compound 33, 3-methoxy-5,5-dimethyl-6-oxo-3-(4-(tri-fluoromethyl)thia-zol-2-yl)cyclohex-1-enecarbonitrile]
Second: COC1(c2nc(C)cs2)C=C(C#N)C(=O)C(C)(C)C1 (single isomer, unassigned) [Compound 36, 3-methoxy-5,5-dimethyl-3-(4-methylthiazol-2-yl)-6-oxocyclohex-1-enecarbonitrile]
The EC50 of the first is 4-fold higher: 383 nM for the first, 96 nM for the second. The second is the more potent here.

Going from `COC1(c2sccc2C)C=C(C#N)C(=O)C(C)(C)C1` (single isomer, unassigned) [Compound 34, 3-methoxy-5,5-dimethyl-3-(3-methylthiophen-2-yl)-6-oxocyclohex-1-enecarbonitrile] to `COC1(c2scnc2C)C=C(C#N)C(=O)C(C)(C)C1` (single isomer, unassigned) [Compound 43, 3-methoxy-5,5-dimethyl-3-(4-methylthiazol-5-yl)-6-oxocyclohex-1-enecarbonitrile], the EC50 rises from 12 nM to 129 nM (11-fold). The first is the more potent here.

Going from `CCOC1(c2ncccc2C(F)(F)F)C=C(C#N)C(=O)C(C)(C)C1` (single isomer, unassigned) [Compound 35, 3-ethoxy-5,5-dimethyl-6-oxo-3-(3-(trifluoromethyl)py-ridin-2-yl)cyclohex-1-enecarbonitrile] to `COC1(c2nccs2)C=C(C#N)C(=O)C(C)(C)C1` (single isomer, unassigned) [Compound 39, 3-methoxy-5,5-dimethyl-6-oxo-3-(thiazol-2-yl)cyclohex-1-enecarbonitrile], the EC50 rises from 39 nM to 125 nM (3.2-fold). The first is the more potent here.

Compared with `COC1(c2ncc(F)cc2OC(F)F)C=C(C#N)C(=O)C(C)(C)C1` (single isomer, unassigned) [Compound 47, 3-(3-(difluoromethoxy)-5-fluoropyridin-2-yl)-3-methoxy-5,5-dimethyl-6-oxocyclohex-1-enecarbonitrile], `COC1(c2cccc(-c3c(C)noc3C)n2)C=C(C#N)C(=O)C2(CC2)C1` (single isomer, unassigned) [Compound 52, 7-(6-(3,5-dimethylisoxazol-4-yl)pyridin-2-yl)-7-methoxy-4-oxospiro[2.5]oct-5-ene-5-carbonitrile] is 9.2-fold higher in EC50: 8 nM for the first, 74 nM for the second. The first is the more potent here.

Going from `COC1(c2cccc(-c3cnc(C)nc3)n2)C=C(C#N)C(=O)C2(CC2)C1` (single isomer, unassigned) [Compound 50, 7-methoxy-7-(6-(2-methylpyrimidin-5-yl)pyridin-2-yl)-4-oxospiro[2.5]oct-5-ene-5-carbonitrile] to `COC1(c2cccc(-c3cncnc3)n2)C=C(C#N)C(=O)C2(CC2)C1` (single isomer, unassigned) [Compound 51, 7-methoxy-4-oxo-7-(6-(pyrimidin-5-yl)pyridin-2-yl)spiro[2.5]oct-5-ene-5-carbonitrile], the EC50 rises from 30 nM to 48 nM (1.6-fold).

With `COC1(c2cccc(-c3ccnn3C)n2)C=C(C#N)C(=O)C2(CC2)C1` (single isomer, unassigned) [Compound 53, 7-methoxy-7-(6-(1-methyl-1H-pyrazol-5-yl)pyridin-2-yl)-4-oxospiro[2.5]oct-5-ene-5-carbonitrile] the EC50 was 133 nM.
